In the experiment the test system is roots of corn plants. Description: endomycorrhizal mean infection percentage (MIP) bioassay. The format is in vivo, Zea Maize 'Golden Bantam'. As to conditions: both trials. The method, then:
An endomycorrhizal mean infection percentage (MIP) bioassay was initiated to test mycorrhizal infectivity of a liquid mycorrhizal formulation treated with bactericides. The MIP bioassay is used to determine the effect of endomycorrhizal colonization in the roots of corn plants on the treatment applied. The MIP bioassay was adapted to utilize 15 mL of liquid per pot. The liquid mycorrhizal formulation which was tested was MycoApply Ultra (Novozymes Biologicals), which is a mycorrhizal inoculant that contains several species of endomycorrhizas. For a ready to use fertilizer, the optimal amount of mycorrhizas to be added based on application rate of ready to use fertilizer, mycorrhizal infectivity, and cost effectiveness was 0.1 propagules of mycorrhizas per 1.0 mL of ready to use fertilizer. MycoApply Ultra contains 286 propagules per gram, therefore 0.00034 g MycoApply Ultra in 1 mL of ready to use fertilizer will provide the desired concentration of mycorrhizal propagules, 0.1 prop/mL. The MycoApply Ultra was tested with two different concentrates 10× (0.0034 g/mL) and 100× (0.034 g/mL). The bactericide used in all treatments for Trial 1 was 500 ppm Kathon and 250 ppm Bronopol. There were seven treatment groups, each contained 5 replicates. Treatment 1 was a water only control. […] At harvest the parameter evaluated was percent mycorrhizal colonization. […]

For `O=[N+]([O-])C(Br)(CO)CO` [Bronopol, 2-bromo-2-nitro-1,3-propanediol], the “ability of mycorrhizas to germinate and infect roots in presence of bactericide” value was “increase”.

The values are drawn from US8883679B2, “Liquid mycorrhiza compositions” (Novozymes A/S, priority 2007, dated 2014).
